Data reported in ChEMBL document CHEMBL3045392, “Synthesis and fungicidal evaluation of some new anilinopyrimidine derivatives” (2013).

Key:
Format in all cases: functional
Aspergillus niger [1] = assay: Fungicidal activity against Aspergillus niger assessed as growth inhibition at 1000 ug/ml after 7 days; conditions: 168 h, read-out: IZ
Aspergillus niger [2] = assay: Fungicidal activity against Aspergillus niger assessed as growth inhibition at 100 ug/ml after 7 days; conditions: 168 h, read-out: IZ
Aspergillus niger [3] = assay: Fungicidal activity against Aspergillus niger assessed as growth inhibition at 50 ug/ml after 7 days; conditions: 168 h, read-out: IZ
Aspergillus niger [4] = assay: Fungicidal activity against Aspergillus niger assessed as growth inhibition at 10 ug/ml after 7 days; conditions: 168 h, read-out: IZ
Aspergillus niger [5] = assay: Fungicidal activity against Aspergillus niger assessed as time required for hyphae to burst at 2.5 ug/ml
Aspergillus niger [6] = assay: Fungicidal activity against Aspergillus niger assessed as time required for hyphae to burst at 5 ug/ml
Aspergillus niger [7] = assay: Fungicidal activity against Aspergillus niger assessed as time required for hyphae to burst at 7.5 ug/ml
Aspergillus niger [8] = assay: Fungicidal activity against Aspergillus niger assessed as time required for hyphae to burst at 10 ug/ml

| SMILES | zone of inhibition at 1000 µg/mL (Aspergillus niger [1]) [mm] | zone of inhibition at 100 µg/mL (Aspergillus niger [2]) [mm] | zone of inhibition at 50 µg/mL (Aspergillus niger [3]) [mm] | zone of inhibition at 10 µg/mL (Aspergillus niger [4]) [mm] | Time (Aspergillus niger [5]) [s] | Time (Aspergillus niger [6]) [s] | Time (Aspergillus niger [7]) [s] | Time (Aspergillus niger [8]) [s] |
| --- | --- | --- | --- | --- | --- | --- | --- | --- |
| Cc1nc(Nc2ccccc2)nc2c1C(=N)C(C#N)CN(C(=O)c1ccccc1)C2 (configuration not stated) | 2.1 | 1.33 | 1.02 | 1 |  |  |  |  |
| Cc1cc(CBr)nc(Nc2ccccc2)n1 | 2.2 | 2 | 1.9 | 1.5 |  |  |  |  |
| Cc1nc(Nc2ccccc2)nc(C)c1Br | 2.9 | 2.5 | 2.1 | 1.6 |  |  |  |  |
| Cc1nc(Nc2ccccc2)nc(C)c1C#N | 2.5 | 1.9 | 1.7 | 1.4 |  |  |  |  |
| CC(=O)N(c1ccccc1)c1nc(C)cc(C)n1 [N-ACETYL PYRIMETHANIL] | 3.4 | 2.7 | 2.4 | 2.1 | 9 | 18 | 32 | 51 |
| Cc1cc(C)nc(Nc2ccccc2)n1 [PYRIMETHANIL] | 4 | 3.2 | 2.9 | 2.6 | 12 | 21 | 39 | 56 |
